The structures appear in SMILES notation.

For one experiment, the system named is H358 (Kras, G12C) cells. Description: Tumor cell line proliferation assay (CellTiter Glo), H358. The experiment is classed as cell-based. The settings on record: Homo sapiens, NCI-H358, 96 hours. In general terms: In ATP-based viability assays light output follows the ATP content of the culture.
`Cc1cc(-c2n[nH]c3cc4[nH]c(=O)c([C@H](C)c5ccccc5)cc4cc23)ccn1` [Example 84] came in with an IC50 not above 250 nM.

Regarding `COc1ncc(-c2n[nH]c3cc4c(cc23)CN(Cc2ccc(F)cc2F)C(=O)N4)cn1` [Example 99], the IC50 fell in the range of 250 to 1000 nM.

Regarding `COc1ncc(-c2n[nH]c3cc4c(cc23)CN([C@@H]2CCCN(Cc3ccccc3F)C2)C(=O)N4)cn1` [Example 101], the IC50 is not above 250 nM.

Take `COc1ncc(-c2n[nH]c3cc4c(cc23)CN([C@@H]2CCCN(Cc3c(F)cccc3F)C2)C(=O)N4)cn1` [Example 102]: the IC50 was not above 250 nM.

Compound `COc1ncc(-c2n[nH]c3cc4c(cc23)CN([C@@H]2CCCN(Cc3c(F)cccc3OC)C2)C(=O)N4)cn1` [Example 103] registered an IC50 not above 250 nM.

Compound `O=C1Nc2cc3[nH]nc(-c4ccnnc4)c3cc2CN1[C@@H]1CCCN(Cc2ccccc2)C1` [Example 120] yielded an IC50 of 250 to 1000 nM.

As for `O=C1Nc2cc3[nH]nc(-c4cncnc4)c3cc2CN1Cc1cccc(Cl)c1` [Example 123], the IC50 was in the range of 250 to 1000 nM.

In the case of `Cc1cc(-c2n[nH]c3cc4c(cc23)CN([C@@H]2CCCN(Cc3ccc(F)cn3)C2)C(=O)N4)ccn1` [Example 132], the IC50 was 250 to 1000 nM.

Compound `Cc1cc(-c2n[nH]c3cc4c(cc23)CN([C@@H]2CCCN(Cc3ccc(F)c(Cl)c3)C2)C(=O)N4)ccn1` [Example 134] registered an IC50 of 250 to 1000 nM.

`Cc1cc(-c2n[nH]c3cc4c(cc23)CN([C@@H]2CCCN(CCC(C)(C)C)C2)C(=O)N4)ccn1` [Example 136] showed an IC50 of more than 1000 nM.

The compound `Cc1cc(-c2n[nH]c3cc4c(cc23)CN([C@@H]2CCCN(CC3CCCC3)C2)C(=O)N4)ccn1` [Example 138] yielded an IC50 of more than 1000 nM.

In turn, `Cc1cc(-c2n[nH]c3cc4c(cc23)CN([C@@H]2CCCN(Cc3cc(C)no3)C2)C(=O)N4)ccn1` [Example 139] registered an IC50 of 250 to 1000 nM.

Consider `Cc1cc(-c2n[nH]c3cc4c(cc23)CN([C@@H]2CCCN(Cc3csc(C)n3)C2)C(=O)N4)ccn1` [Example 140], for which the IC50 was in the range of 250 to 1000 nM.

`Cc1cc(-c2n[nH]c3cc4c(cc23)CN([C@@H]2CCCN(CC3CCCCC3)C2)C(=O)N4)ccn1` [Example 141] gave an IC50 of 250 to 1000 nM.

Take `Cc1cc(-c2n[nH]c3cc4c(cc23)CN([C@@H]2CCCN(Cc3c(F)cccc3F)C2)C(=O)N4)ccn1` [Example 143]: the IC50 was not above 250 nM.

The subject of another experiment is phospho-p90 RSK (RSK1 Thr359/Ser363) in A375 (Braf V600E) cells. Description: Phospho-p90 RSK ELISA using A375 (Braf V600E) cells. It counts as cell-based. The following applies: Homo sapiens, A-375, 2 hours compound treatment, read-out: Cellular Phospho-p90RSK IC50. (In general: In an ELISA, binding on a coated surface is turned into a signal by an enzyme label.)
For `Cc1cc(-c2n[nH]c3cc4[nH]c(=O)c([C@H](C)c5ccccc5)cc4cc23)ccn1` [Example 84], the IC50 was not above 250 nM.

Turning to `COc1ncc(-c2n[nH]c3cc4c(cc23)CN(Cc2ccc(F)cc2F)C(=O)N4)cn1` [Example 99], the IC50 is not above 250 nM.

For the compound `COc1ncc(-c2n[nH]c3cc4c(cc23)CN([C@@H]2CCCN(Cc3ccccc3F)C2)C(=O)N4)cn1` [Example 101], the IC50 is not above 250 nM.

Consider `COc1ncc(-c2n[nH]c3cc4c(cc23)CN([C@@H]2CCCN(Cc3c(F)cccc3F)C2)C(=O)N4)cn1` [Example 102], for which the IC50 was not above 250 nM.

`COc1ncc(-c2n[nH]c3cc4c(cc23)CN([C@@H]2CCCN(Cc3c(F)cccc3OC)C2)C(=O)N4)cn1` [Example 103]: the IC50 was not above 250 nM.

As to `O=C1Nc2cc3[nH]nc(-c4ccnnc4)c3cc2CN1[C@@H]1CCCN(Cc2ccccc2)C1` [Example 120], the IC50 is not above 250 nM.

`O=C1Nc2cc3[nH]nc(-c4cncnc4)c3cc2CN1Cc1cccc(Cl)c1` [Example 123]: the IC50 is not above 250 nM.

Consider `Cc1cc(-c2n[nH]c3cc4c(cc23)CN([C@@H]2CCCN(Cc3ccc(F)cn3)C2)C(=O)N4)ccn1` [Example 132], for which the IC50 was not above 250 nM.

`Cc1cc(-c2n[nH]c3cc4c(cc23)CN([C@@H]2CCCN(Cc3ccc(F)c(Cl)c3)C2)C(=O)N4)ccn1` [Example 134]: the IC50 is not above 250 nM.

On to `Cc1cc(-c2n[nH]c3cc4c(cc23)CN([C@@H]2CCCN(CCC(C)(C)C)C2)C(=O)N4)ccn1` [Example 136], for which the IC50 was in the range of 250 to 1000 nM.

As to `Cc1cc(-c2n[nH]c3cc4c(cc23)CN([C@@H]2CCCN(CC3CCCC3)C2)C(=O)N4)ccn1` [Example 138], the IC50 lay in the range of 250 to 1000 nM.

For `Cc1cc(-c2n[nH]c3cc4c(cc23)CN([C@@H]2CCCN(Cc3cc(C)no3)C2)C(=O)N4)ccn1` [Example 139], the IC50 lay in the range of 250 to 1000 nM.

As for `Cc1cc(-c2n[nH]c3cc4c(cc23)CN([C@@H]2CCCN(Cc3csc(C)n3)C2)C(=O)N4)ccn1` [Example 140], the IC50 is not above 250 nM.

As for `Cc1cc(-c2n[nH]c3cc4c(cc23)CN([C@@H]2CCCN(CC3CCCCC3)C2)C(=O)N4)ccn1` [Example 141], the IC50 is not above 250 nM.

On to `Cc1cc(-c2n[nH]c3cc4c(cc23)CN([C@@H]2CCCN(Cc3c(F)cccc3F)C2)C(=O)N4)ccn1` [Example 143], for which the IC50 is not above 250 nM.

The subject of a further experiment is A375 cells. The experiment can be described thus: Tumor cell line proliferation assay (CellTiter Glo), A375. It counts as cell-based. The following applies: Homo sapiens, A-375, 96 h, read-out: A375 (V599E) Cell Proliferation IC50.
For `Cc1cc(-c2n[nH]c3cc4[nH]c(=O)c([C@H](C)c5ccccc5)cc4cc23)ccn1` [Example 84], the IC50 is not above 250 nM.

Regarding `COc1ncc(-c2n[nH]c3cc4c(cc23)CN(Cc2ccc(F)cc2F)C(=O)N4)cn1` [Example 99], the IC50 is 250 to 1000 nM.

In the case of `COc1ncc(-c2n[nH]c3cc4c(cc23)CN([C@@H]2CCCN(Cc3ccccc3F)C2)C(=O)N4)cn1` [Example 101], the IC50 is not above 250 nM.

As to `COc1ncc(-c2n[nH]c3cc4c(cc23)CN([C@@H]2CCCN(Cc3c(F)cccc3F)C2)C(=O)N4)cn1` [Example 102], the IC50 was not above 250 nM.

As to `COc1ncc(-c2n[nH]c3cc4c(cc23)CN([C@@H]2CCCN(Cc3c(F)cccc3OC)C2)C(=O)N4)cn1` [Example 103], the IC50 is not above 250 nM.

As to `O=C1Nc2cc3[nH]nc(-c4ccnnc4)c3cc2CN1[C@@H]1CCCN(Cc2ccccc2)C1` [Example 120], the IC50 was in the range of 250 to 1000 nM.

Consider `O=C1Nc2cc3[nH]nc(-c4cncnc4)c3cc2CN1Cc1cccc(Cl)c1` [Example 123], for which the IC50 was in the range of 250 to 1000 nM.

On to `Cc1cc(-c2n[nH]c3cc4c(cc23)CN([C@@H]2CCCN(Cc3ccc(F)cn3)C2)C(=O)N4)ccn1` [Example 132], for which the IC50 lay within 250 to 1000 nM.

As for `Cc1cc(-c2n[nH]c3cc4c(cc23)CN([C@@H]2CCCN(Cc3ccc(F)c(Cl)c3)C2)C(=O)N4)ccn1` [Example 134], the IC50 is not above 250 nM.

Consider `Cc1cc(-c2n[nH]c3cc4c(cc23)CN([C@@H]2CCCN(CCC(C)(C)C)C2)C(=O)N4)ccn1` [Example 136], for which the IC50 was 250 to 1000 nM.

In the case of `Cc1cc(-c2n[nH]c3cc4c(cc23)CN([C@@H]2CCCN(CC3CCCC3)C2)C(=O)N4)ccn1` [Example 138], the IC50 lay within 250 to 1000 nM.

Turning to `Cc1cc(-c2n[nH]c3cc4c(cc23)CN([C@@H]2CCCN(Cc3cc(C)no3)C2)C(=O)N4)ccn1` [Example 139], the IC50 lay within 250 to 1000 nM.

As to `Cc1cc(-c2n[nH]c3cc4c(cc23)CN([C@@H]2CCCN(Cc3csc(C)n3)C2)C(=O)N4)ccn1` [Example 140], the IC50 is 250 to 1000 nM.

As to `Cc1cc(-c2n[nH]c3cc4c(cc23)CN([C@@H]2CCCN(CC3CCCCC3)C2)C(=O)N4)ccn1` [Example 141], the IC50 lay within 250 to 1000 nM.

As for `Cc1cc(-c2n[nH]c3cc4c(cc23)CN([C@@H]2CCCN(Cc3c(F)cccc3F)C2)C(=O)N4)ccn1` [Example 143], the IC50 is not above 250 nM.

(Values after patent publication US10301317B2, “Inhibitors of ERK and methods of use” (Kura Oncology, Inc., priority 2013, dated 2019).)
